Measurements from patent US20200179245A1, “HIGH EFFICIENCY SUNSCREEN COMPOSITION” (Deckner Consulting Services, LLC, priority 2015, published 2020).
Like-named read-outs stand apart in the source and are kept apart here.

Key:
[1] = In vitro open chamber Franz diffusion cell penetration test; format: in vitro ADME; details: Strat-M membrane, 37° C.
Experimental: The Test sample was Barsoleil OMC-60 with a purity of 61.95%. The control sample was Octyl Methoxycinnamate with a purity of 100%. The samples were applied to a Strat-M membrane for testing using 5 skin preparations. A 6-cell semiautomatic Franz cell setup was used for all diffusion experiments. (Franz cell Diffusion is a standard in vitro method used for penetration). Circulating water baths were set to 37° C.±0.5° C. Strat-M synthetic membrane was used in place of cadaver skin. The Strat-M® membrane was placed between the donor and receptor compartments of the Franz cells. The available open area between donor and receptor compartments measured 0.635 cm2. The compartments were clamped together, ensuring that the shiny side of the membrane was facing the donor compartment. 1 mL of the test and control samples were used and placed in the donor chamber. The receptor compartment was filled with 0.9% saline:methanol (50:50) buffer. When the receptor solution reached 37° C., the sample was added to the donor compartment. An aliquot of each sample was removed from the receptor compartment at times T=0, 2, 4, 6 and 8 hours.
The dose of the receptor phase was analyzed by HPLC, and the amount of release per unit area (μg/cm2) was plotted against the square of time and the slope was the transdermal release rate. (See FIG. 3, control sample 20, test sample 30).

[2] = human skin, cited from earlier work

Row | Cumulative C ([1]; penetration time 0 hrs) | Cumulative C ([1]; penetration time 2 hrs) | Cumulative C ([1]; penetration time 4 hrs) | Cumulative C ([1]; penetration time 6 hrs) | Cumulative C ([1]; penetration time 8 hrs) | SMILES | in vitro skin penetration rate / skin accumulation ([2]; oil in water emulsion) | in vitro skin penetration rate / skin accumulation ([2]; water in oil emulsion)
1 | 0 μg/cm^2 | 16.7 μg/cm^2 | 55.2 μg/cm^2 | 96.5 μg/cm^2 | 144.9 μg/cm^2 | CCCCC(CC)COC(=O)C=Cc1ccc(OC)cc1 (stereo not shown) [OMC, Octyl Methoxycinnamate] | – | –
2 | – | – | – | – | – | CCCCC(CC)COC(=O)/C=C/c1ccc(OC)cc1 (stereo not shown) [OMC-free] | 127.8 μg/cm^2 | 172.1±12.9 μg/cm^2
